# Patent US20260191887A1, “METHODS OF TREATING INFLAMMATION” (THERAPEUTIKOS, INC., priority 2022, published 2026)
# What was measured:
# [1] = test system: leukocytes migration to the peritoneal cavity; assay: Leukocyte migration to the peritoneal cavity in LPS-induced systemic inflammation in mice; type: in vivo, mouse; conditions: LPS 10 mg/kg I.P., compound 200 or 300 mg/kg I.V., vs LPS alone
# Experimental: Male C57BL6/J mice (8 to 10-week-old, 20-25 g) purchased from Charles River were used in this study. Mice were kept in the animal facility of the School of Medicine, University of Virginia (UVa). All experimental procedures were approved by the Ethics Committee on Animal Research of Medical School, UVa and are in accordance with the Guidelines of the National Council for Animal Experimentation Control (CONCEA).
# Moderate endotoxemia by LPS was induced with a single dose (10 mg/Kg, i.p.) of LPS (Escherichia coli 0111:B4, Sigma Chemical Co., St. Louis, MO, United States), 30 min after intravenous injection of NAG or NDX1 or NDX2 or the vehicle (saline). Two doses (200 mg/kg body weight and 300 mg/kg body weight) were tested for NAG, NDX1 and NDX2. Animals without any treatment were used to obtain the baseline data. Six hours after LPS treatment, inflammation assays were performed as described below. A total of 40 animals were randomly divided into 5 groups (8 mice/group): non-treatment (NT); 10 mg/Kg LPS plus saline (LPS); 10 mg/Kg LPS plus NAG (LPS+NAG); 10 mg/Kg LPS plus NDX1 (LPS+NDX1); and 10 mg/Kg LPS plus NDX2 (LPS+NDX2). The experiment was duplicated.
# Peritoneal cells were collected by lavage with ice-cold Dulbecco's modified Eagle's medium (DMEM, Gibco BRL, Gaithersburg, MD). […]
# nitric oxide = assay: Griess nitrite production assay in LPS-activated RAW264.7 macrophages; type: cell-based, mouse; conditions: LPS 100 ng/mL; NDX1 0.2, 1 and 5 mM, NDX2 0.5 and 5 mM, NAG 0.5-5 mM; n=6
# Experimental: Mouse RAW264.7 macrophage cell line (ATCC; Manassas, VA, USA) was maintained in DMEM culture medium containing 10% FBS and 1% antibiotic mix. For cell treatment, the test drugs at different doses were added to the culture 0.5 h prior to addition of 100 ng/mL LPS (Sigma-Aldrich Co., St Louis, MO, USA) and then cells were co-treated with LPS for 24 hours.
# The Griess reagent system is based on the chemical reaction which uses sulfanilamide and N-1-napthylethylenediamine dihydrochloride (NED) under acidic (phosphoric acid) conditions. This system detects nitrite production. In the present experiments, nitric oxide detection was performed by a commercial kit (Promega Corporation, Madison, WI, USA), according to the manufacturer's manual. Briefly, all experimental samples and standards containing the dilution series for the nitrite standard reference curve were mixed with 50 μL of the sulfanilamide solution and incubated 10 mins at room temperature without light in a 96-well plate. Then 50 μL of the NED Solution was added to each well and incubated 10 mins at room temperature without light. The optical density (OD) was determined at 530 nm on a microplate reader within 30 mins. No LPS and the other drugs were added in the non-treatment group (NT). The experiment was duplicated. There were six repeats in each group (n=6). […].
# [2] = test system: primary mouse peritoneal macrophages; assay: WST-1 assay in LPS-activated primary mouse peritoneal macrophages; type: cell-based; conditions: LPS 100 ng/mL, doses of up to 1 mM, 24 h, n=8
# Experimental: • 1. Non treatment (NT) • 2. LPS 100 ng/mL • 3. LPS 100 ng/mL+NDX1 dose1* • 4. LPS 100 ng/mL+NDX1 dose2* • 5. LPS 100 ng/mL+NDX1 dose3* • 6. LPS 100 ng/mL+NDX2 dose1 • 7. LPS 100 ng/mL+NDX2 dose2 • 8. LPS 100 ng/mL+NDX2 dose3 • 9. LPS 100 ng/mL+NAG dose2 • 10. LPS 100 ng/mL+NAG dose3 (*dose 1, 2, 3 were selected as low, middle and high dose with no cytotoxicity from the cytotoxic assay) The peritoneal macrophages were isolated from peritoneal cavity, and cultured in Dulbecco's modified Eagle's medium (DMEM, Gibco BRL, Gaithersburg, MD) supplemented with 10% fetal bovine serum (FBS) (Hyclone Laboratories, Logan, VT) and 100 IU/mL penicillin G and 100 µg/mL streptomycin, in a humidified atmosphere of 5% carbon dioxide at 37° C. Cells will grow on a 96-well plate and co-treated with 100 ng/ml LPS (Sigma-Aldrich) 0.5 hours after addition of BNAGs and NAG. Twenty-four hours later, the cell number was counted by using the WST-1 kit (Fisher Scientific). After removal of the supernatant, […] new medium was added into each cell. Then 15 μl Cell Proliferation Reagent WST-1 was added and incubated with cells for 3 hours in dark with a humidified atmosphere of 5% carbon dioxide at 37° C. Each sample was determined at 450 nm on a microplate reader.
# IL-6 = IL-6 ELISA in LPS-activated primary mouse peritoneal macrophages; type: cell-based; conditions: LPS 100 ng/mL; NDX1 and NDX2 0.01, 0.1, 1 mM; NAG 0.1 and 1 mM; n=8
# Experimental: • 1. Non treatment (NT) • 2. LPS 100 ng/mL • 3. LPS 100 ng/mL+NDX1 dose1* • 4. LPS 100 ng/mL+NDX1 dose2* • 5. LPS 100 ng/mL+NDX1 dose3* • 6. LPS 100 ng/mL+NDX2 dose1 • 7. LPS 100 ng/mL+NDX2 dose2 • 8. LPS 100 ng/mL+NDX2 dose3 • 9. LPS 100 ng/mL+NAG dose2 • 10. LPS 100 ng/mL+NAG dose3 (*dose 1, 2, 3 were selected as low, middle and high dose with no cytotoxicity from the cytotoxic assay)
# The peritoneal macrophages were isolated from peritoneal cavity, and cultured in Dulbecco's modified Eagle's medium (DMEM, Gibco BRL, Gaithersburg, MD) supplemented with 10% fetal bovine serum (FBS) (Hyclone Laboratories, Logan, VT) and 100 IU/mL penicillin G and 100 µg/mL streptomycin, in a humidified atmosphere of 5% carbon dioxide at 37° C. Cells will grow on a 96-well plate and co-treated with 100 ng/ml LPS (Sigma-Aldrich) 0.5 hours after addition of BNAGs and NAG. Twenty-four hours later, the cell number was counted by using the WST-1 kit (Fisher Scientific). After removal of the supernatant, […] new medium was added into each cell. […] Each sample was determined at 450 nm on a microplate reader.
# The amounts of IL-6 and TNFα were measured by a commercial ELISA kit (Sigma-Aldrich), following the instructions provided by the manufacturer. […] The resultant solutions were read at 450 nm on a microplate reader.
smiles,measurement,setting,value
"CC(=O)N[C@H]1C(O)O[C@H](CO)[C@@H](O)[C@@H]1O (stereo partly shown) [NAG, N-acetyl glucosamine]",decrease of leukocytes migration to the peritoneal cavity (WST-1 test or DAPI staining),[1],neither NAG nor NDX2 did
same,inhibition of nitric oxide (nitrite) production,nitric oxide,couldn't
same,effect on cell number (WST-1) compared with LPS alone,[2],no significant effect on cell number
same,reduction of IL-6 production (ELISA),IL-6,could significantly reduce IL-6 and TNFa production
